# From US10906946B2, “Thrombin inhibitors” (priority 2015, dated 2021)
# Peptide text beside a SMILES is read from it.
# Tests used:
# [1] = system: platelets (ADP-induced platelet aggregation); assay: Preservation of platelet function in blood tubes (Multiplate, ADP-induced platelet aggregation); type: cell-based, human (healthy volunteers); conditions: ADP agonist
# Protocol: Individual peptides are dissolved in phosphate buffered saline to prepare 10× peptide solutions (ie. concentrations of peptides are 10 times higher than the final concentrations at which they are to be tested). 0.3 ml of the 10× peptide solutions are placed in blood tubes without any additives. Blood was drawn from healthy volunteers using syringes and immediately transferred to a 50 ml conical centrifuge tube (Falcon tube) before pipetting 2.7 ml of the blood into blood tubes with peptide solutions. Final concentrations of peptides are as stated in Table 5 and 6.
# Blood tubes with various peptides at different concentrations were left standing at room temperature until tested at designated times. At different time points, tubes were inverted several times and blood samples were taken out for platelet aggregation tests using a Multiplate® Platelet aggregometer with adenosine diphosphate (ADP) as agonist according to manufacturer's recommended protocols.
# human α-thrombin = target: T1, human α-thrombin (Homo sapiens, UniProt P00734); assay: Thrombin amidolytic activity assay with chromogenic substrate S2238; type: biochemical
# T1 construct: residues in the termini of the light chain; purchased Chemo-Sero-Therapeutic Research Institute (Kaketsuken, Japan), as a gift, not bought
# Method in brief: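 Run in 50 mM Tris pH 7.4, 100 mM NaCl, 1 mg/ml BSA; p-nitroaniline release from S2238 monitored at 405 nm for 10 min. IC50 and Hill coefficients from dose-response fits; inhibition constants from varied S2238 concentrations using Morrison tight-binding equation.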
# clot-bound thrombin = clot-bound thrombin (Homo sapiens, UniProt P00734); assay: biochemical
# Protocol: Clot-bound thrombin activity was tested using S2238. Briefly, fibrin clots were prepared by incubating 100 μL of 2 mg/mL fibrinogen (in 50 mM HEPES buffer, pH 7.5, 150 mM NaCl, 10 mg/mL CaCl2) with 100 μL 30 nM thrombin. After 2 h at 37° C., the clots were extensively washed with the same buffer. This washing was repeated after every three hours for a period of 24 hr. […] Chromogenic substrate, S2238 (final concentration 200 μM) was then added and the reaction mixture was incubated for 90 min at 37° C. Aliquots were taken, and substrate hydrolysis was estimated by end point reading at 405 nm, using a Tecan InfinitePro microplate reader. Experiments were performed in quadruplicate and percentage inhibition was plotted.
# [2] = inhibitory constant Ki for thrombin, thrombin 0.81 nM, various S2238 concentrations
SMILES,"Multiplate AUC (U) ([1]; 1.5 h, peptide 150 μM)","Multiplate AUC (U) ([1]; 1.5 h, peptide 300 μM)","Multiplate AUC (U) ([1]; 4 h, peptide 150 μM)","Multiplate AUC (U) ([1]; 4 h, peptide 300 μM)","Multiplate AUC (U) ([1]; 24 h, peptide 150 μM)","Multiplate AUC (U) ([1]; 24 h, peptide 300 μM)","Multiplate AUC (U) ([1]; 48 h, peptide 300 μM)",times higher affinity for thrombin than Bivalirudin (human α-thrombin),Ki (human α-thrombin; [2]),further results
CC[C@H](C)[C@H](NC(=O)[C@H](CCCCN)NC(=O)[C@@H]1CCCN1C(=O)[C@@H](NC(=O)[C@H](C)NC(=O)[C@@H](NC(=O)[C@H](CCC(N)=O)NC(=O)[C@H](Cc1c[nH]cn1)NC(=O)CNC(=O)CNC(=O)[C@@H](N)CO)[C@@H](C)O)C(C)C)C(=O)N[C@@H](CO)C(=O)N[C@@H](CCCCN)C(=O)N[C@@H](CCC(N)=O)C(=O)NCC(=O)N[C@@H](CC(C)C)C(=O)NCC(=O)NCC(=O)N[C@@H](CC(=O)O)C(=O)N[C@@H](Cc1ccccc1)C(=O)N[C@@H](CCC(=O)O)C(=O)N[C@@H](CCC(=O)O)C(=O)N[C@H](C(=O)N1CCC[C@H]1C(=O)N[C@@H](CO)C(=O)N[C@@H](CC(=O)O)C(=O)N[C@@H](CCC(=O)O)C(=O)N[C@H](C(=O)N[C@H](C(=O)N[C@@H](CCC(=O)O)C(=O)O)[C@@H](C)CC)[C@@H](C)CC)[C@@H](C)CC [Avathrin] (H-SGGHQTAVPKISKQGLGGDFEEIPSDEIIE-OH; N-terminus and C-terminus assumed),60.9 U,62.4 U,53.6 U,46.8 U,55.8 U,43.3 U,3.5 U,approximately 5 times,0.5453 ± 0.0031 nM,"Hill slope of thrombin amidolytic inhibition (human α-thrombin; 0 min pre-incubation where stated): 0.92±0.01; Hill slope of thrombin amidolytic inhibition, 10 min pre-incubation (human α-thrombin; 10 min pre-incubation): 0.94±0.02; IC50 (human α-thrombin; IC50(nM), Table 2): 6.95 ± 0.42 nM; Hill Slope (human α-thrombin; Table 2): 0.92 ± 0.02; thrombin amidolytic activity inhibited after prolonged incubation (human α-thrombin; at 24 h, same avathrin:thrombin ratio as cleavage experiments): > 45%; inhibition at 0.01 µM (human α-thrombin; read-out: inhibition of thrombin activity): 65%; inhibition at 0.001 µM (human α-thrombin; read-out: inhibition of thrombin amidolytic activity at equimolar concentrations): 14.3 ± 1.39%; IC50 (clot-bound thrombin): 1740 ± 350 nM"
CC[C@H](C)[C@H](NC(=O)[C@H](C)NC(=O)[C@H](CC(=O)O)NC(=O)[C@H](CC(=O)O)NC(=O)[C@@H]1CCCN1C(=O)[C@@H](NC(=O)[C@H](CCC(=O)O)NC(=O)[C@H](CCC(=O)O)NC(=O)[C@H](Cc1ccccc1)NC(=O)[C@H](CC(=O)O)NC(=O)CNC(=O)[C@@H]1CCCN1C(=O)[C@@H]1CCCN1C(=O)[C@H](C)NC(=O)[C@@H](NC(=O)[C@H](CO)NC(=O)[C@H](Cc1ccc(O)cc1)NC(=O)[C@H](CCSC)NC(=O)[C@H](CCCCN)NC(=O)[C@@H]1CCCN1C(=O)[C@@H](NC(=O)[C@H](C)NC(=O)[C@H](CCCNC(=N)N)NC(=O)[C@@H](NC(=O)[C@H](C)NC(=O)[C@H](CCC(=O)O)NC(=O)[C@H](CC(=O)O)NC(=O)[C@@H](N)CO)C(C)C)[C@@H](C)CC)[C@@H](C)O)[C@@H](C)CC)C(=O)N[C@@H](CCC(=O)O)C(=O)N[C@@H](CCC(=O)O)C(=O)O [Ultravariegin] (H-SDEAVRAIPKMYSTAPPGDFEEIPDDAIEE-OH; N-terminus and C-terminus assumed),55.7 U,66.3 U,52 U,46.1 U,43.1 U,39.5 U,25.4 U,~650 times,0.0015 nM,"Multiplate AUC (U) ([1]; 48 h, peptide 150 μM): 7.4 U; Multiplate AUC (U) ([1]; 72 h, peptide 150 μM): 9.6 U; Multiplate AUC (U) ([1]; 72 h, peptide 300 μM): 15.4 U; fold more potent than variegin (Ki) (human α-thrombin): more than 70 fold; fold stronger affinity compared to avathrin and variegin (human α-thrombin): > 200 fold; Ki (human α-thrombin; Affinity (nM), Table 4, Ki values): 0.001 nM; IC50 (human α-thrombin; IC50 (nM), Table 5): 0.4 ± 0.09 nM; IC50 (human α-thrombin; IC50 of inhibition of thrombin amidolytic activity, thrombin 0.81 nM, S2238 100 μM, without pre-incubation (0 min) where stated): 0.26 ± 0.008 nM; Ki (human α-thrombin; Ki (pM), Table 5): 0.0044 ± 0.00035 nM"
